In PubChem BioAssay (NCI):
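Growth conditions: 96-well plates. Treatment: test compound, 48 hours, 5 concentrations. Analysis: linear interpolation between bracketing concentrations; unreached endpoints set to highest concentration. The concentration for full growth arrest is given as TGI.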

How the values were obtained:
Assay in all cases: inhibition of tumour cell growth, NCI panel, 48 h
ACHN renal = tested on: ACHN renal
HOP-62 NSCLC = tested on: HOP-62 NSCLC
A549 NSCLC = tested on: A549 NSCLC
NCI-H522 lung = tested on: NCI-H522 lung
T-47D breast = tested on: T-47D breast
MOLT-4 leukemia = tested on: MOLT-4 leukemia
NCI-H226 lung = tested on: NCI-H226 lung
OVCAR-4 ovarian = tested on: OVCAR-4 ovarian
SW-620 colon = tested on: SW-620 colon
K-562 leukemia = tested on: K-562 leukemia
SK-OV-3 ovarian = tested on: SK-OV-3 ovarian
A498 renal = tested on: A498 renal
HT29 colon = tested on: HT29 colon
HCT-15 colon = tested on: HCT-15 colon
MDA-MB-231 breast = tested on: MDA-MB-231 breast
IGROV1 ovarian = tested on: IGROV1 ovarian
SK-MEL-5 melanoma = tested on: SK-MEL-5 melanoma
EKVX NSCLC = tested on: EKVX NSCLC
SNB-75 CNS = tested on: SNB-75 CNS

Q: With COc1ccc2c(c1)c1c(n2CCN2CCOCC2)-c2cccc(OC)c2CC1 as the compound, how does the TGI (ACHN renal) read?
A: The TGI was over 100 µM.

Q: What about the TGI (HOP-62 NSCLC) of the same compound?
A: The TGI was over 100 µM.

Q: And the TGI (A549 NSCLC)?
A: The TGI was over 100 µM.

Q: And the TGI (NCI-H522 lung)?
A: Its TGI is 89 µM.

Q: And the TGI (T-47D breast)?
A: The TGI was over 100 µM.

Q: And the TGI (MOLT-4 leukemia)?
A: Its TGI is 76.7 µM.

Q: What about the TGI (NCI-H226 lung) of the same compound?
A: The TGI was 52.9 µM.

Q: And the TGI (OVCAR-4 ovarian)?
A: The TGI was over 100 µM.

Q: And the TGI (SW-620 colon)?
A: Its TGI is over 100 µM.

Q: And the TGI (K-562 leukemia)?
A: Its TGI is over 100 µM.

Q: And the TGI (SK-OV-3 ovarian)?
A: The TGI was over 100 µM.

Q: What about the TGI (A498 renal) of the same compound?
A: The TGI was over 100 µM.

Q: What about the TGI (HT29 colon) of the same compound?
A: Its TGI is 32.2 µM.

Q: And the TGI (HCT-15 colon)?
A: Its TGI is over 100 µM.

Q: And the TGI (MDA-MB-231 breast)?
A: Its TGI is over 100 µM.

Q: And the TGI (IGROV1 ovarian)?
A: The TGI was over 100 µM.

Q: What about the TGI (SK-MEL-5 melanoma) of the same compound?
A: Its TGI is over 100 µM.

Q: Which results are given for CCOC(=O)C(C)Sc1nnc(COc2ccc(Cl)cc2)n1-c1ccccc1 (stereo not given)?
A: TGI (ACHN renal): 31.6 µM; TGI (HOP-62 NSCLC): 37.5 µM; TGI (A549 NSCLC): > 100 µM; TGI (NCI-H522 lung): 5.16 µM; TGI (NCI-H226 lung): 46.9 µM; TGI (EKVX NSCLC): 83.5 µM; TGI (OVCAR-4 ovarian): 42.6 µM; TGI (SNB-75 CNS): > 100 µM; TGI (SW-620 colon): 27.2 µM; TGI (K-562 leukemia): 49.9 µM; TGI (SK-OV-3 ovarian): > 100 µM; TGI (HT29 colon): 31.9 µM; TGI (HCT-15 colon): 27.8 µM; TGI (IGROV1 ovarian): 50.3 µM; TGI (SK-MEL-5 melanoma): 35.8 µM

Q: For C[C@@H]1[C@H](O)CC2=C(CC[C@@H](O)C2(C)C)[C@@]1(CO)CCc1ccoc1, which TGI (ACHN renal) is on record?
A: Its TGI is over 50 µM.

Q: What about the TGI (HOP-62 NSCLC) of the same compound?
A: The TGI was over 50 µM.

Q: And the TGI (A549 NSCLC)?
A: Its TGI is over 50 µM.

Q: What about the TGI (MOLT-4 leukemia) of the same compound?
A: The TGI was over 50 µM.

Q: What about the TGI (NCI-H226 lung) of the same compound?
A: The TGI was over 50 µM.

Q: What about the TGI (EKVX NSCLC) of the same compound?
A: The TGI was over 50 µM.

Q: What about the TGI (OVCAR-4 ovarian) of the same compound?
A: The TGI was over 50 µM.

Q: And the TGI (SNB-75 CNS)?
A: The TGI was over 50 µM.

Q: And the TGI (SW-620 colon)?
A: Its TGI is over 50 µM.

Q: And the TGI (K-562 leukemia)?
A: Its TGI is over 50 µM.

Q: And the TGI (SK-OV-3 ovarian)?
A: Its TGI is over 50 µM.

Q: And the TGI (A498 renal)?
A: The TGI was over 50 µM.

Q: What about the TGI (HT29 colon) of the same compound?
A: Its TGI is over 50 µM.

Q: And the TGI (HCT-15 colon)?
A: The TGI was over 50 µM.

Q: And the TGI (MDA-MB-231 breast)?
A: Its TGI is over 50 µM.

Q: And the TGI (IGROV1 ovarian)?
A: Its TGI is over 50 µM.

Q: And the TGI (SK-MEL-5 melanoma)?
A: The TGI was over 50 µM.

Q: What does the source list for CC(=O)OC1OC(c2ccoc2)C[C@@]12C1CCC3O[C@]3(C)[C@]1(C)[C@H](OC(C)=O)[C@H](OC(C)=O)[C@H]2C (stereo not given in full)?
A: TGI (ACHN renal): > 37.5 µM; TGI (HOP-62 NSCLC): > 37.5 µM; TGI (A549 NSCLC): > 37.5 µM; TGI (MOLT-4 leukemia): > 37.5 µM; TGI (NCI-H226 lung): > 37.5 µM; TGI (EKVX NSCLC): > 37.5 µM; TGI (OVCAR-4 ovarian): > 37.5 µM; TGI (SW-620 colon): > 37.5 µM; TGI (K-562 leukemia): > 37.5 µM; TGI (SK-OV-3 ovarian): > 37.5 µM; TGI (A498 renal): > 37.5 µM; TGI (HT29 colon): > 37.5 µM; TGI (HCT-15 colon): > 37.5 µM; TGI (MDA-MB-231 breast): > 37.5 µM; TGI (IGROV1 ovarian): > 37.5 µM; TGI (SK-MEL-5 melanoma): > 37.5 µM

Q: What does the source list for O=C(c1ccco1)N(C(=S)N1CCN(c2ccccc2)CC1)C1CCCCC1?
A: TGI (ACHN renal): > 100 µM; TGI (HOP-62 NSCLC): > 100 µM; TGI (A549 NSCLC): > 100 µM; TGI (NCI-H522 lung): > 100 µM; TGI (MOLT-4 leukemia): > 100 µM; TGI (OVCAR-4 ovarian): > 100 µM; TGI (SNB-75 CNS): > 100 µM; TGI (SW-620 colon): > 100 µM; TGI (K-562 leukemia): > 100 µM; TGI (SK-OV-3 ovarian): > 100 µM; TGI (HT29 colon): > 100 µM; TGI (HCT-15 colon): > 100 µM; TGI (IGROV1 ovarian): > 100 µM; TGI (SK-MEL-5 melanoma): > 100 µM

Q: How did the TGI (ACHN renal) turn out when N#COc1ccc(Oc2ccccc2)cc1 was run?
A: Its TGI is over 100 µM.

Q: And the TGI (HOP-62 NSCLC)?
A: The TGI was over 100 µM.

Q: And the TGI (A549 NSCLC)?
A: Its TGI is over 100 µM.

Q: What about the TGI (NCI-H522 lung) of the same compound?
A: The TGI was over 100 µM.

Q: What about the TGI (MOLT-4 leukemia) of the same compound?
A: Its TGI is over 100 µM.

Q: What about the TGI (NCI-H226 lung) of the same compound?
A: The TGI was over 100 µM.

Q: What about the TGI (EKVX NSCLC) of the same compound?
A: The TGI was over 100 µM.

Q: And the TGI (OVCAR-4 ovarian)?
A: The TGI was over 100 µM.

Q: And the TGI (SNB-75 CNS)?
A: The TGI was over 100 µM.

Q: And the TGI (K-562 leukemia)?
A: Its TGI is over 100 µM.

Q: And the TGI (SK-OV-3 ovarian)?
A: The TGI was over 100 µM.

Q: What about the TGI (A498 renal) of the same compound?
A: Its TGI is over 100 µM.

Q: What about the TGI (HT29 colon) of the same compound?
A: Its TGI is over 100 µM.

Q: And the TGI (HCT-15 colon)?
A: Its TGI is over 100 µM.

Q: What about the TGI (IGROV1 ovarian) of the same compound?
A: Its TGI is over 100 µM.

Q: What about the TGI (SK-MEL-5 melanoma) of the same compound?
A: The TGI was over 100 µM.

Q: How did the TGI (HOP-62 NSCLC) turn out when CCO/S(=N/S(=O)(=O)c1ccccc1)c1ccccc1[N+](=O)[O-] (stereo not given) was run?
A: Its TGI is over 100 µM.

Q: What about the TGI (A549 NSCLC) of the same compound?
A: Its TGI is over 100 µM.

Q: And the TGI (NCI-H522 lung)?
A: The TGI was over 100 µM.

Q: And the TGI (MOLT-4 leukemia)?
A: Its TGI is over 100 µM.

Q: And the TGI (NCI-H226 lung)?
A: Its TGI is over 100 µM.

Q: What about the TGI (EKVX NSCLC) of the same compound?
A: Its TGI is over 100 µM.

Q: And the TGI (OVCAR-4 ovarian)?
A: The TGI was over 100 µM.

Q: And the TGI (SNB-75 CNS)?
A: Its TGI is over 100 µM.

Q: What about the TGI (SW-620 colon) of the same compound?
A: The TGI was over 100 µM.

Q: And the TGI (K-562 leukemia)?
A: The TGI was over 100 µM.

Q: What about the TGI (SK-OV-3 ovarian) of the same compound?
A: Its TGI is over 100 µM.

Q: What about the TGI (HT29 colon) of the same compound?
A: Its TGI is over 100 µM.

Q: And the TGI (HCT-15 colon)?
A: The TGI was over 100 µM.

Q: And the TGI (IGROV1 ovarian)?
A: The TGI was over 100 µM.

Q: What about the TGI (SK-MEL-5 melanoma) of the same compound?
A: Its TGI is over 100 µM.
